“And” between values parts separate entries of the source, which are not always exact repeats. Equal values may be shown once. Marks after values point to notes of the source that are not given here.
Tested on: patients with advanced solid tumors
Experiment: Treatment-related adverse events and dose-limiting toxicities, phase 1/2a trial CA011-001
Assay type: in vivo
Procedure: CA011-001 was an open-label study of BMS-986158 monotherapy. Part 1 of the study included a dose-escalation segment and Part 2 was a dose-expansion phase. In Part 1, escalation occurred with an initial dose of BMS-986158 and increased in prespecified increments above the previous dose level until the first occurrence of any protocol-defined dose-limiting toxicity (DLT). Overall, 3 dosing schedules were evaluated to test safety and efficacy (Supplemental Figure S1). Each patient on schedules A, B, and C was administered a single oral dose of BMS-986158 on cycle 1 day 1 (C1D1), and no additional doses were administered until cycle 2 day 1 (C2D1; ≈7 days after C1D1). Beginning on C2D1 and for each subsequent cycle, patients received treatment according to the following schedules. On schedule A, BMS-986158 was administered once daily (QD) for 5 days on and 2 days off with 0.75-, 1.25-, 2.0-, 3.0-, and 4.5-mg escalating doses. On schedule B, patients received BMS-986158 QD for 14 days on and 7 days off with 2.0- and 3.0-mg doses. On schedule C, BMS-986158 QD was given for 7 days on and 14 days off with 2.0-, 3.0-, and 4.5-mg doses. Dose escalation was guided by a modified toxicity probability interval (mTPI) design. In the mTPI design, 3 to 4 patients would be enrolled at each dose level; if a DLT was observed, an additional 3 to 4 patients would be evaluated at the same dose level, up to a total of 13 patients. If no DLTs occurred, 3 to 4 patients would be enrolled at the next dose level. The target DLT rate was 27% to determine the maximum tolerated dose (MTD). For Part 2 of this trial (the dose-expansion phase), schedule A dosing was selected based on safety, pharmacodynamics, and PK data collected in Part 1. The dosing regimen for Part 2 was 4.5 mg for 2 weeks (10 doses) followed by 3.75 mg for the remainder of treatment. However, because study CA011-001 was terminated early with 1 patient enrolled in Part 2, we have grouped this patient with the schedule A, 4.5-mg cohort in Part 1 for the remainder of this report.
Safety was assessed as adverse events (AEs) coded by the Medical Dictionary for Regulatory Activities version 24.0 and the National Cancer Institute’s Common Terminology Criteria for Adverse Events version 4.03. In addition, AEs were classified by whether they were considered possibly or probably treatment related (TRAEs) by investigator assessment, qualified as a serious AE, or led to interruption or discontinuation of study therapy.
All treated patients who received ≥1 dose of BMS-986158 were evaluated in the safety population. […] All treated patients with available and sufficient serum or plasma samples for the corresponding analytes were included in the PK analyses. […] ECG parameters were evaluated in a categorical analysis, and linear mixed-effects regression modeling was used to describe the quantitative relationship between ΔQTcF and time-matched serum concentrations of BMS-986158 or its metabolite at a single dose.
Descriptive summary statistics, including means and 95% CIs, were calculated using the Clopper-Pearson method for ORR and Kaplan–Meier method for PFS and OS. During dose escalation, an mTPI design targeted a 27% DLT rate to guide escalation decisions and the MTD selection. In the dose-escalation segment, the target enrollment was up to 30 patients per schedule and 3–13 DLT-evaluable patients at a dose level, with an aim to determine the MTD. The totality of the data, including PK, pharmacodynamics, and patient overall safety, including at lower dose levels, was also used to select the RP2D.

[1] = Schedule A (5 days on, 2 days off), n = 46
[2] = Schedule B (14 days on, 7 days off), n = 8
[3] = Schedule C (7 days on, 14 days off), n = 29

SMILES: Cc1nnn(C)c1-c1cnc2c3ccc(C(C)(C)O)cc3n([C@H](c3ccccc3)C3CCOCC3)c2c1 [BMS-986158]
- Treatment discontinuation due to a TRAE (grade 3 myocardial infarction) (1 patient, schedule A group at the 4.5-mg dose, of all patients): 1.2%
- Incidence of TRAEs (Schedule A (5 days on, 2 days off)): 72% and 71.7%
- Anemia (TRAE), any grade [1]: 6 (13.0) n (%)
- Anemia (TRAE), grade ≥ 3 [1]: 2 (4.3) n (%)
- Decreased appetite (TRAE), any grade [1]: 5 (10.9) n (%)
- Decreased appetite (TRAE), grade ≥ 3 [1]: 0 n (%)
- Diarrhea (TRAE), any grade [1]: 19 (41.3) n (%)
- Diarrhea (TRAE), grade ≥ 3 [1]: 0 n (%)
- Discontinuations due to TRAEs, any grade [1]: 1 (2.2) ^d n (%)
- Discontinuations due to TRAEs, grade ≥ 3 [1]: 1 (2.2) ^d n (%)
- Fatigue (TRAE), any grade [1]: 8 (17.4) n (%)
- Fatigue (TRAE), grade ≥ 3 [1]: 2 (4.3) n (%)
- Nausea (TRAE), any grade [1]: 7 (15.2) n (%)
- Nausea (TRAE), grade ≥ 3 [1]: 1 (2.2) n (%)
- Patients with any TRAE, any grade [1]: 33 (71.7) n (%)
- Patients with any TRAE, grade ≥ 3 [1]: 19 (41.3) n (%)
- Serious TRAEs, any grade [1]: 3 (6.5) ^a,d n (%)
- Serious TRAEs, grade ≥ 3 [1]: 3 (6.5) ^a,d n (%)
- Thrombocytopenia (TRAE), any grade [1]: 20 (43.5) n (%)
- Thrombocytopenia (TRAE), grade ≥ 3 [1]: 16 (34.8) n (%)
- Vomiting (TRAE), any grade [1]: 5 (10.9) n (%)
- Vomiting (TRAE), grade ≥ 3 [1]: 0 n (%)
- DLT grade 4 thrombocytopenia (Schedule A, 2.0 mg): 1/13
- DLT grade 4 thrombocytopenia (Schedule A, 3.0 mg): 1/10
- DLT grade 4 thrombocytopenia (Schedule A, 4.5 mg): 2/13
- Serious TRAEs, incidence (Schedule A, 3 of 46 patients): 6.5%
- Anemia (TRAE), any grade [2]: 2 (25.0) n (%)
- Anemia (TRAE), grade ≥ 3 [2]: 2 (25.0) n (%)
- Decreased appetite (TRAE), any grade [2]: 4 (50.0) n (%)
- Decreased appetite (TRAE), grade ≥ 3 [2]: 0 n (%)
- Diarrhea (TRAE), any grade [2]: 4 (50.0) n (%)
- Diarrhea (TRAE), grade ≥ 3 [2]: 0 n (%)
- Discontinuations due to TRAEs, any grade [2]: 0 n (%)
- Discontinuations due to TRAEs, grade ≥ 3 [2]: 0 n (%)
- Fatigue (TRAE), any grade [2]: 4 (50) n (%)
- Fatigue (TRAE), grade ≥ 3 [2]: 1 (12.5) n (%)
- Incidence of TRAEs [2]: 100%
- Nausea (TRAE), any grade [2]: 1 (12.5) n (%)
- Nausea (TRAE), grade ≥ 3 [2]: 1 (12.5) n (%)
- Patients with any TRAE, any grade [2]: 8 (100.0) n (%)
- Patients with any TRAE, grade ≥ 3 [2]: 4 (50.0) n (%)
- Serious TRAEs, any grade [2]: 2 (25.0) ^b n (%)
- Serious TRAEs, grade ≥ 3 [2]: 2 (25.0) ^b n (%)
- Thrombocytopenia (TRAE), any grade [2]: 5 (62.5) n (%)
- Thrombocytopenia (TRAE), grade ≥ 3 [2]: 2 (25.0) n (%)
- Vomiting (TRAE), any grade [2]: 2 (25.0) n (%)
- Vomiting (TRAE), grade ≥ 3 [2]: 1 (12.5) n (%)
- DLT grade 4 thrombocytopenia (Schedule B, 3.0 mg): 2/4
- Serious TRAEs, incidence (Schedule B, 2 of 8 patients): 25.0%
- Incidence of TRAEs (Schedule C (7 days on, 14 days off)): 72% and 72.4%
- Anemia (TRAE), any grade [3]: 4 (13.8) n (%)
- Anemia (TRAE), grade ≥ 3 [3]: 1 (3.4) n (%)
- Decreased appetite (TRAE), any grade [3]: 3 (10.3) n (%)
- Decreased appetite (TRAE), grade ≥ 3 [3]: 0 n (%)
- Diarrhea (TRAE), any grade [3]: 13 (44.8) n (%)
- Diarrhea (TRAE), grade ≥ 3 [3]: 0 n (%)
- Discontinuations due to TRAEs, any grade [3]: 0 n (%)
- Discontinuations due to TRAEs, grade ≥ 3 [3]: 0 n (%)
- Fatigue (TRAE), any grade [3]: 4 (13.8) n (%)
- Fatigue (TRAE), grade ≥ 3 [3]: 0 n (%)
- Nausea (TRAE), any grade [3]: 6 (20.7) n (%)
- Nausea (TRAE), grade ≥ 3 [3]: 0 n (%)
- Patients with any TRAE, any grade [3]: 21 (72.4) n (%)
- Patients with any TRAE, grade ≥ 3 [3]: 5 (17.2) n (%)
- Serious TRAEs, any grade [3]: 0 n (%)
- Serious TRAEs, grade ≥ 3 [3]: 0 n (%)
- Thrombocytopenia (TRAE), any grade [3]: 7 (24.1) n (%)
- Thrombocytopenia (TRAE), grade ≥ 3 [3]: 3 (10.3) n (%)
- Vomiting (TRAE), any grade [3]: 3 (10.3) n (%)
- Vomiting (TRAE), grade ≥ 3 [3]: 1 (3.4) n (%)
- Serious TRAEs (Schedule C cohort (n = 29)): no serious TRAEs were reported
- DLT grade 4 thrombocytopenia (Schedule C, 4.5 mg): 2/10
- Anemia (TRAE), any grade (Total, N = 83): 12 (14.5) n (%)
- Anemia (TRAE), grade ≥ 3 (Total, N = 83): 5 (6.0) n (%)
- Decreased appetite (TRAE), any grade (Total, N = 83): 12 (14.5) n (%)
- Decreased appetite (TRAE), grade ≥ 3 (Total, N = 83): 0 n (%)
- Diarrhea (TRAE), any grade (Total, N = 83): 36 (43.4) n (%)
- Diarrhea (TRAE), grade ≥ 3 (Total, N = 83): 0 n (%)
- Discontinuations due to TRAEs, any grade (Total, N = 83): 1 (1.2) ^d n (%)
- Discontinuations due to TRAEs, grade ≥ 3 (Total, N = 83): 1 (1.2) ^d n (%)
- Fatigue (TRAE), any grade (Total, N = 83): 16 (19.3) n (%)
- Fatigue (TRAE), grade ≥ 3 (Total, N = 83): 3 (3.6) n (%)
- Nausea (TRAE), any grade (Total, N = 83): 14 (16.9) n (%)
- Nausea (TRAE), grade ≥ 3 (Total, N = 83): 2 (2.4) n (%)
- Patients with any TRAE, any grade (Total, N = 83): 62 (74.7) n (%)
- Patients with any TRAE, grade ≥ 3 (Total, N = 83): 28 (33.7) n (%)
- Serious TRAEs, any grade (Total, N = 83): 5 (6.0) ^c,d n (%)
- Serious TRAEs, grade ≥ 3 (Total, N = 83): 5 (6.0) ^c,d n (%)
- Thrombocytopenia (TRAE), any grade (Total, N = 83): 32 (38.6) n (%)
- Thrombocytopenia (TRAE), grade ≥ 3 (Total, N = 83): 21 (25.3) n (%)
- Vomiting (TRAE), any grade (Total, N = 83): 10 (12.0) n (%)
- Vomiting (TRAE), grade ≥ 3 (Total, N = 83): 2 (2.4) n (%)
- Anemia as any-grade TRAE, incidence (all patients): 14.5%
- Decreased appetite as any-grade TRAE, incidence (all patients): 14.5%
- Fatigue as any-grade TRAE, incidence (all patients): 19.3%
- Nausea as any-grade TRAE, incidence (all patients): 16.9%
- Thrombocytopenia as grade ≥ 3 TRAE, incidence (all patients): 25.3%
- Vomiting as any-grade TRAE, incidence (all patients): 12.0%
- Thrombocytopenia as TRAE, incidence (all patients, any grade): 39% and 38.6%
- Diarrhea as TRAE, incidence (all treatment schedule cohorts, 83 patients, any grade): 43% and 43.4%
- Patients who experienced DLTs (among 83 patients, all in part 1): 9
- Patients with grade 3 nausea as a DLT (of 4 patients, Schedule B, 2.0-mg cohort): 1
- Serious TRAEs, incidence (overall study population, 5 of 83 patients): 6%

Source: article PMC9454848, “BMS-986158, a Small Molecule Inhibitor of the Bromodomain and Extraterminal Domain Proteins, in Patients with Selected Advanced Solid Tumors: Results from a Phase 1/2a Trial” (Cancers, 2022)
